Reference: ChEMBL document CHEMBL1201862, “PubChem BioAssay data set” (2004)
Where a name gives a salt, the structure may show the parent alone. Activity calls are given as the source filed them.

How the values were obtained:
[1] = Vero cell cytotoxicity, dose response, cytotoxicity control for Vif-APOBEC3G degradation inhibitor project, Vero cells (AID 1117358); format: functional; details: Human immunodeficiency virus 1, Vero
[2] = target: T1, Apoptotic protease-activating factor 1 (Homo sapiens, UniProt O14727); format: functional
T1 sequence (O14727 whole entry): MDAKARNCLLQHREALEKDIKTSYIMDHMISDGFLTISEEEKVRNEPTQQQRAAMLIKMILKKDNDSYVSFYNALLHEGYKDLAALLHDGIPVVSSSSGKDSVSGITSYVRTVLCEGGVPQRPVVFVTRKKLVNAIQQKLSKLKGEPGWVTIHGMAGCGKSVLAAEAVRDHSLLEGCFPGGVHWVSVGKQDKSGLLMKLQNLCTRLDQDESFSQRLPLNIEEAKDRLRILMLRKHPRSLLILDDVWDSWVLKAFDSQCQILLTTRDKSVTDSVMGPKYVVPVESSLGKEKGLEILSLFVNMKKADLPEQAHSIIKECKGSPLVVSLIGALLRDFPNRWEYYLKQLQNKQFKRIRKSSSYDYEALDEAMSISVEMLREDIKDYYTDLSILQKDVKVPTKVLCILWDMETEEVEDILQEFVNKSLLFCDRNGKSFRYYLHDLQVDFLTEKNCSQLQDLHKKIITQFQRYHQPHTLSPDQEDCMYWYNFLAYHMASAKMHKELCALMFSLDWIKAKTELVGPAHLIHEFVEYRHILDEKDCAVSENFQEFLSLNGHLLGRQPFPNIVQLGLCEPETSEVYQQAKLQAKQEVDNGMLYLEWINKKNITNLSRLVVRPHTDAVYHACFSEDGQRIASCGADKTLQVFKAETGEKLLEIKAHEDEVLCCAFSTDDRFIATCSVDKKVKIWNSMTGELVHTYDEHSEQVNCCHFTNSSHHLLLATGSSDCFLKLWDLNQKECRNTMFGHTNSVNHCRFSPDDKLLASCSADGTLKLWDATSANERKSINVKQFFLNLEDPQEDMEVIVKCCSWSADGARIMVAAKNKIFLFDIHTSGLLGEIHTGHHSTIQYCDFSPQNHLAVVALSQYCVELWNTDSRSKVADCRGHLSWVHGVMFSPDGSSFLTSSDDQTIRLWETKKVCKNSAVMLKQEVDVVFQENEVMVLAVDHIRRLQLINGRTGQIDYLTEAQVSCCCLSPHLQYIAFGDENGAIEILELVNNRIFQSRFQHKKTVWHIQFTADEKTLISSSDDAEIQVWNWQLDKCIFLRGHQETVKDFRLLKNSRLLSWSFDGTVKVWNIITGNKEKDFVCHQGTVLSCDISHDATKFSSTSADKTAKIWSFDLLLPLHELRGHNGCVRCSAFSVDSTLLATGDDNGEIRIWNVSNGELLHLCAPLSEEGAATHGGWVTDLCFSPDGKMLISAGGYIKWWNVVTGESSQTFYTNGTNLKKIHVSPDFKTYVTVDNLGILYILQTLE

[3] = target: Glutathione-S-transferase (Schistosoma japonicum, UniProt Q26513); test: biotin-GST/anti-GST TR-FRET signal inhibitors, dose response, artefact control for Vif-APOBEC3G degradation inhibitor project, biochemical (AID 1117362); format: functional
Chain of Glutathione-S-transferase (Q26513 whole entry): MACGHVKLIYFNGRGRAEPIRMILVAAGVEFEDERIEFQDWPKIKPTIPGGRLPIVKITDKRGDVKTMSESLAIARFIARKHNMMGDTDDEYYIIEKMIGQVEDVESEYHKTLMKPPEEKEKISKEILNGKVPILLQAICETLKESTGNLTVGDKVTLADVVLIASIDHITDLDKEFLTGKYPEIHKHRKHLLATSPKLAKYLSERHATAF

[4] = target: T2, Zinc finger protein mex-5 (Caenorhabditis elegans, UniProt Q9XUB2); test: MEX-5/TCR-2 RNA interaction inhibitors, dose response, biochemical, C. elegans, fluorescence polarization (AID 1960)
T2 sequence (Q9XUB2 whole entry): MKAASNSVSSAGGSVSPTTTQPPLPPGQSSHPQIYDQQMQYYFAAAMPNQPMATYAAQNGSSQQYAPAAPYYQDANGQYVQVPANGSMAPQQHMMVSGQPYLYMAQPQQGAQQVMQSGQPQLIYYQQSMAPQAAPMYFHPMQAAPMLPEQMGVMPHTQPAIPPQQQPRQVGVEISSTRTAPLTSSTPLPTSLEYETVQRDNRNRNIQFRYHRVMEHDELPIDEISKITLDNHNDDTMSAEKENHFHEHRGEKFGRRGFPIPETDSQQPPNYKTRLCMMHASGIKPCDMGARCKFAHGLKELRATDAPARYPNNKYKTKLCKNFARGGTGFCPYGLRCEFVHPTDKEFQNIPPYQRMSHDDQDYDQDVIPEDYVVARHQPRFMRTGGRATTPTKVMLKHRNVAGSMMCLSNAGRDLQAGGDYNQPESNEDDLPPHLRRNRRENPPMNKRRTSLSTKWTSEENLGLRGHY

[5] = target: T3, RNA-binding protein pos-1 (Caenorhabditis elegans, UniProt G5EF15); test: inhibitors of POS-1/mex-3 RNA binding, dose response, biochemical, fluorescence polarization (AID 1964);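 further: purified POS-1 fused to maltose binding protein made in E. coli; potency of compounds blocking POS-1 binding to fluorescent RNA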
T3 sequence (G5EF15 whole entry): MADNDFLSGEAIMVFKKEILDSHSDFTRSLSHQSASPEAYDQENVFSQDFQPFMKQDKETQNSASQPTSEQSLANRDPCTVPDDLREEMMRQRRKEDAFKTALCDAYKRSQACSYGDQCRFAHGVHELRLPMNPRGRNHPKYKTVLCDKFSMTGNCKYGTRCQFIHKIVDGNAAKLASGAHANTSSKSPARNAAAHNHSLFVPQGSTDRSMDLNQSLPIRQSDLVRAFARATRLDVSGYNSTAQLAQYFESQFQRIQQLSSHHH

Genome polyprotein = Genome polyprotein (dengue virus type 2, UniProt P29990); test: Dengue-2 NS5 methyltransferase inhibitors, primary screen, biochemical, confirmation dose response (AID 588689); format: functional
Chain of Genome polyprotein (P29990 2492-3391 limits assumed): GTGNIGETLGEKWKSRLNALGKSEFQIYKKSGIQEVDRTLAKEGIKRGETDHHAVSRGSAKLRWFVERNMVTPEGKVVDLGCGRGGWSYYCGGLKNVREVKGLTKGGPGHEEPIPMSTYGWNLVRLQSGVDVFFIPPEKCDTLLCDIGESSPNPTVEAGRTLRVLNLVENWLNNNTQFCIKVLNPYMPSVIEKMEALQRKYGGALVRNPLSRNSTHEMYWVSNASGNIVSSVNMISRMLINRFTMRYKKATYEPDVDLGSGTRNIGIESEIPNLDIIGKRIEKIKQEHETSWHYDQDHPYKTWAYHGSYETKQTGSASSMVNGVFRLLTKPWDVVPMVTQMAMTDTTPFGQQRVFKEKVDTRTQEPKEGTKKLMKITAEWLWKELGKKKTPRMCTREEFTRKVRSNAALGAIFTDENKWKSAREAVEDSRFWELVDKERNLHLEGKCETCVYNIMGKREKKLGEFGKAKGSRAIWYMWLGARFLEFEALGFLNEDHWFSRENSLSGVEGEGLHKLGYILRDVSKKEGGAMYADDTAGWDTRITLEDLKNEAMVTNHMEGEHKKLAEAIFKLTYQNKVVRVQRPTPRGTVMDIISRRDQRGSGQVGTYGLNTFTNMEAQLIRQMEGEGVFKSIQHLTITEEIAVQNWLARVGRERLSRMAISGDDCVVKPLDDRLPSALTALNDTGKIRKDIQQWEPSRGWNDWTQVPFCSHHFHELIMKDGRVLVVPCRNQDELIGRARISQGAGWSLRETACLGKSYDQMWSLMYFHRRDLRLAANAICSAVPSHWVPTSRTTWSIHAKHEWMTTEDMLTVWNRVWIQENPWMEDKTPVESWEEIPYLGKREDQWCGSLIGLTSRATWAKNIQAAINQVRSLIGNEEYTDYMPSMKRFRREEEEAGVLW

[6] = P. falciparum late gametocyte killing, dose response, luminescence (AID 1117278); format: functional, cell-based;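 further: gametocytes exposed to compound for 24 hours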
[7] = Jurkat T cell cytotoxicity, dose response, cytotoxicity control for P. falciparum gametocyte viability project, luminescence (AID 1117277); format: functional, cell-based;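 further: potency reflects loss of cellular ATP meaning fewer viable cells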
[8] = A549 cell cytotoxicity, dose response, CellTiter-Glo luminescence, dry powder, set 17 (AID 1117284); format: functional, cell-based
[9] = A549 cell cytotoxicity, dose response, cytotoxicity control, 24 h, CellTiter-Glo luminescence, cherry-picks (AID 1053115); format: functional, cell-based; details: A549, 24 h
[10] = target: T4, Low molecular weight phosphotyrosine protein phosphatase (Homo sapiens, UniProt P24666); test: LMPTP phosphatase inhibitors, colorimetric pNPP readout, dose response, orthogonal assay, biochemical, absorbance, pNPP substrate, LMPTP-A isoform, set 2 (AID 743308); format: functional
T4 sequence (P24666 whole entry): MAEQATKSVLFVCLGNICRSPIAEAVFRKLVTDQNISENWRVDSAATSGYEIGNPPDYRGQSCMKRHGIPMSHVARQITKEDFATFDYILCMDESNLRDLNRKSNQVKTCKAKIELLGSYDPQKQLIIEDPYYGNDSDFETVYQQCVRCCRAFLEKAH

[11] = target: T4, Low molecular weight phosphotyrosine protein phosphatase; test: LMPTP phosphatase inhibitors, dose response, biochemical, OMFP substrate, fluorescence intensity, set 2 (AID 743307); format: functional
[12] = HEK293T cell cytotoxicity, dose response, cytotoxicity control, plate reader, dry powder, set 10 (AID 743315); format: functional, cell-based; details: HEK293
[13] = C. albicans growth with fluconazole, confirmation, fluorescence, retest (AID 2467); format: functional, cell-based
[14] = target: ATP-dependent molecular chaperone HSP82 (Candida albicans (strain WO-1) (Yeast), UniProt C4YTQ8); test: loss of DOC-induced GRE-beta-galactosidase reporter signal, dose response, Hsp90 inhibitor project, S. cerevisiae, luminescence (AID 2400); format: functional, cell-based;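 further: beta-galactosidase luminescence from glucocorticoid response element reporter as proxy for Hsp90 function; inhibitor potency where signal loss means Hsp90 inhibition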
Chain of ATP-dependent molecular chaperone HSP82 (C4YTQ8 whole entry): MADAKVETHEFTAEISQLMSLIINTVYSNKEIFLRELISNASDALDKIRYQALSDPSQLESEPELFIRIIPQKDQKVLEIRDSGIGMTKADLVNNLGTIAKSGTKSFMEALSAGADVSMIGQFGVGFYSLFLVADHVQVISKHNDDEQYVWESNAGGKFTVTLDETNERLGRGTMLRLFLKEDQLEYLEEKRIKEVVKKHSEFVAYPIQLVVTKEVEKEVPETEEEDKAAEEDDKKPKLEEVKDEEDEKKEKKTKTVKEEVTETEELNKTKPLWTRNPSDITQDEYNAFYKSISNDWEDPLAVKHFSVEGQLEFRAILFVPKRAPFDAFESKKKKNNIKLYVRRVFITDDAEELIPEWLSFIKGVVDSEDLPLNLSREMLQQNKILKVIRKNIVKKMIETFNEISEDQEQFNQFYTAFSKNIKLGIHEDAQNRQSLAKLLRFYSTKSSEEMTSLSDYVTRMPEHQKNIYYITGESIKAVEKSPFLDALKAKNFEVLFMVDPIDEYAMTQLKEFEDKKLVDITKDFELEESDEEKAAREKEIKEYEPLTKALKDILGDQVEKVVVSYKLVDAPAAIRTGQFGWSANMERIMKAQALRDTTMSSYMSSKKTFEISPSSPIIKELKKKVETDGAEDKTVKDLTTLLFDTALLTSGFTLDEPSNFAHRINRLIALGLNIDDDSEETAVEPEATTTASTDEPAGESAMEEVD

cells [15] = format: functional, cell-based
cells [16] = format: functional, cell-based; remark: listed apart in the source
[17] = HeLa 2N DNA content increase, dose response, cell-based, IC50 (AID 1117349); format: functional
[18] = target: Serine/threonine-protein phosphatase (Candida dubliniensis (strain CD36 / CBS 7987 / NCPF 3949 / NRRLY-17841) (Yeast), UniProt B9W6M3); test: calcineurin pathway inhibitors in yeast reporter, dose response, S. cerevisiae, CDRE-lacZ, luminescence, secondary (AID 2388); format: functional, cell-based;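 further: yeast reporter cells carrying a calcineurin-responsive lacZ construct stimulated with calcium chloride; luminescent beta-galactosidase reporter signal in whole cells rather than isolated phosphatase activity; potency for inhibition where a drop in reporter signal means calcineurin blockade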
Chain of Serine/threonine-protein phosphatase (B9W6M3 whole entry): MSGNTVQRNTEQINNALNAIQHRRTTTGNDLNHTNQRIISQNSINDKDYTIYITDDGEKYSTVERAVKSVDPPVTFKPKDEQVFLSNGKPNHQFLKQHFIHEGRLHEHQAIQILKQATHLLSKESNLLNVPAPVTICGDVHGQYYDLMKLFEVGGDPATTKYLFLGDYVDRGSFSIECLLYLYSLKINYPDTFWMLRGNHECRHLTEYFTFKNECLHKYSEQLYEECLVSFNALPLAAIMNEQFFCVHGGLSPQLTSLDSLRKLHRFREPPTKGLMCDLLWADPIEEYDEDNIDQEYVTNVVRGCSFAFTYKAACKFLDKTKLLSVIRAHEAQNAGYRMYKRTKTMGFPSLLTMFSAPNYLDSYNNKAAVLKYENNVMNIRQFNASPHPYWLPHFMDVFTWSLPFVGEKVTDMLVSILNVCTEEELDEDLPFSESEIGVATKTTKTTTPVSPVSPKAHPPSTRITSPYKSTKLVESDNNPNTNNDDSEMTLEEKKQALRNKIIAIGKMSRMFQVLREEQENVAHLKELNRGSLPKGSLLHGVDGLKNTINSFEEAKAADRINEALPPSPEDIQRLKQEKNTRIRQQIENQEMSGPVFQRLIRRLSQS

[19] = NIH-3T3 fibroblast cytotoxicity, dose response, cytotoxicity control, cell-based, fluorescence, Alamar Blue, secondary assay (AID 2327); format: functional;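 further: NIH-3T3 mouse fibroblasts cultured with fluconazole at 8 µg/mL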
[20] = HeLa 4N DNA content increase, dose response, cell-based, IC50 (AID 1117351); format: functional
[21] = Dose-response inhibition of insulin secretion in a rat insulinoma line at 5 mM glucose (AID 1117331); format: functional, cell-based; details: INS-1E

For `Oc1ccccc1-c1cc(C(F)(F)C(F)F)[nH]n1`, the CC50 [1] was > 40 µM (active).

With `COC(=O)CCC(=O)OC1(C)C(=O)C2=CN(CCCOC(C)C)C(c3ccc(OC)cc3)=CC2=C(Br)C1=O` (configuration not stated) the IC50 [2] was 15.4 µM (active), the IC50 [3] was > 100 µM (active) and the EC50 [4] was 42 µM (active). The EC50 [5] was 46.9 µM (active) and the IC50 (Genome polyprotein) was 19.8 µM (active).

In the case of `CCOC(=O)c1c(N)c2cc([N+](=O)[O-])cnc2n1C`, the IC50 [6] is reported as > 109 µM (inactive) and the IC50 [7] is reported as > 83.4 µM (inactive).

In the case of `C[C@H]1CN([C@@H](C)CO)S(=O)(=O)c2ccc(C#CC(C)(C)O)cc2O[C@H]1CN(C)Cc1ccc(-c2ccccc2)cc1`, the AC50 [8] is reported as 20.4 µM (active) and the AC50 [9] is reported as > 60 µM (inactive).

For `c1ccc(-c2nc(NCCN3CCCC3)c3ccccc3n2)cc1`, the IC50 [10] was > 80 µM (inactive) and the IC50 [11] was > 80 µM (inactive).

With `CC(C)c1ccc(OCCn2c(=S)[nH]c3ccccc32)cc1` the AC50 [12] was 27.3 µM (active).

In the case of `CC(=O)N(O)CCCCCNC(=O)CCC(=O)N(O)CCCCCNC(=O)CCC(=O)N(O)CCCCCN` [DEFEROXAMINE MESYLATE], the EC50 [13] is reported as 0.578 µM (active), the EC50 [14] is reported as > 150 µM (inactive) and the EC50 (cells [15]) is reported as 225 µM (active). The EC50 (cells [16]) was > 350 µM (not active), the IC50 [17] was > 10 µM (inactive) and the EC50 [18] was > 180 µM (inactive). For the same compound, the EC50 [19] was > 150 µM (inactive) and the IC50 [20] was > 10 µM (inactive).

For `CN1CCC(N(Cc2cccs2)c2ccccc2)CC1` [THENALIDINE], the IC50 [21] was 20.4 µM (inactive).
